Results: US20050075375A1 (priority 2003, published 2005)

Test system: monocistronic NK5.1 HCV replicon in Huh7 cells
Assay: HCV replicon assay, monocistronic replicon cell line
Assay type: cell-based, hepatitis C virus
Settings: Hepatitis C virus, Huh-7, 72 h; Table 1; monocistronic replicon in Huh7 cells, 3 days incubation, HCV RNA/GAPDH RNA by TaqMan RT-PCR; read-out: Mono EC50 Median
Description: HCV Replicon Assays (Replicon EC50 (μM))
HCV replication can be measured by a replicon assay such as described by Vrolijk et al, J. Virol. Methods 110:201(2003), which is hereby incorporated in its entirety by reference. The method was implemented as follows.
Monocistronic Replicon Cell Line:
Human hepatocyte Huh7 cells containing the monocistronic NK5.1 replicon were obtained from Ralf Bartenschlager at the University of Mainz, Germany. These cells were maintained under hygromycin selection and passaged when 80-90% confluent.
This cell line contains an autonomously replicating RNA element (replicon) incorporating the non-structural HCV elements necessary for replication, and upon which the survival of the replicon in the cell depends. This replicon contains a single internal ribosome entry site (HCV IRES). Inhibition of any of the critical HCV finctions by a compound leads to loss of the replicon as measured by HCV replicon RNA copy number reduction. The amount of HCV RNA present following a standard incubation with a compound is a measure of the anti-HCV activity of the compound. The assay was conducted by preparing sufficient 96-well plates containing these cells, wherein cells are seeded at 6000 cells/well in a 96-well plate, in 200 μl of final media volume. Cells were then incubated for 24 hours at 37 C., 5% CO2, and 95% humidity before compound was added. Six point half-log concentration response assays were conducted to determine potency/EC50 of Formula I compounds to inhibit HCV replicon replication. The final percent DMSO acceptable in this assay system is 0.6%. Compounds were diluted in media in an appropriate format and 5 μl of each drug dilution is added to each well. Cells were then incubated with compounds for 3 days at 37 C., 5% CO2, and 95% humidity. Following the three day incubation period, plates were washed twice with phosphate buffered saline to remove media and cells were lysed with Qiagen extraction buffer. RNA was extracted and isolated with the Qiagen RNAeasy kit according to the manufacturer's protocol (Qiagen). TaqMan One-Step RT-PCR was used in conjunction with an ABI 7700 Sequence Detector (Applied Biosystems) for the quantitation and analysis of HCV replicon RNA copy number. A GAPDH probe was used for internal normalization. The ratio of HCV RNA to cellular GAPDH RNA was determined and compared to the DMSO-only treated control, and the ratio of HCV RNA/GAPDH RNA was used for an EC50 determination and as a measure of specificity for inhibition of the HCV replicon.

Compound: COc1ccc(-c2ccn(-c3ncc(C(F)(F)F)cc3Cl)n2)c(F)c1 [Compound 47, 3-Chloro-2-[3-(2-fluoro-4-methoxy-phenyl)-pyrazol-1-yl]-5-trifluoromethyl-pyridine]
- EC50: 6 µM

Compound: COc1ccc(-c2ccnn2-c2ncc(C(F)(F)F)cc2Cl)c(F)c1 [Compound 48, 3-Chloro-2-[5-(2-fluoro-4-methoxy-phenyl)-pyrazol-1-yl]-5-trifluoromethyl-pyridine]
- EC50: 15 µM

Compound: COc1ccc(-c2ccn(-c3c(Cl)cncc3Cl)n2)c(F)c1 [Compound 49, 3,5-Dichloro-4-[3-(2-fluoro-4-methoxy-phenyl)-pyrazol-1-yl]-pyridine]
- EC50: > 32 µM

Compound: COc1ccc(-c2ccnn2-c2c(Cl)cncc2Cl)c(F)c1 [Compound 50, 3,5-Dichloro-4-[5-(2-fluoro-4-methoxy-phenyl)-pyrazol-1-yl]-pyridine]
- EC50: 5.8 µM

Compound: COc1ccc(-c2ccn(-c3ncccc3C(F)(F)F)n2)c(F)c1 [Compound 51, 2-[3-(2-Fluoro-4-methoxy-phenyl)-pyrazol-1-yl]-3-trifluoromethyl-pyridine]
- EC50: 20 µM

Compound: COc1ccc(-c2ccnn2-c2ncccc2C(F)(F)F)c(F)c1 [Compound 52, 2-[5-(2-Fluoro-4-methoxy-phenyl)-pyrazol-1-yl]-3-trifluoromethyl-pyridine]
- EC50: 2.1 µM

Compound: COc1ccc(-c2ccn(-c3ccccn3)n2)c(F)c1 [Compound 53, 2-[3-(2-Fluoro-4-methoxy-phenyl)-pyrazol-1-yl]-pyridine]
- EC50: > 32 µM

Compound: COc1ccc(-c2ccnn2-c2ccccn2)c(F)c1 [Compound 54, 2-[5-(2-Fluoro-4-methoxy-phenyl)-pyrazol-1-yl]-pyridine]
- EC50: 2.2 µM

Compound: CCCNC(=O)c1cc(-c2ccc(OC)cc2)nn1-c1ccc(Cl)cc1 [Compound 55, 2-(4-Chloro-phenyl)-5-(4-methoxy-phenyl)-2H-pyrazole-3-carboxylic acid propylamide]
- EC50: 18 µM

Compound: CCOC(=O)c1cc(-c2ccc(OC)cc2)nn1-c1ncccc1C(F)(F)F [Compound 56, 5-(4-Methoxy-phenyl)-2-(3-trifluoromethyl-pyridin-2-yl)-2H-pyrazole-3-carboxylic acid ethyl ester]
- EC50: > 32 µM

Compound: CCOC(=O)c1cc(-c2ccc(OC)cc2)n(-c2ncccc2C(F)(F)F)n1 [Compound 57, 5-(4-Methoxy-phenyl)-1-(3-trifluoromethyl-pyridin-2-yl)-1H-pyrazole-3-carboxylic acid ethyl ester]
- EC50: > 32 µM

Compound: COc1ccc(-c2cc(C(=O)O)nn2-c2ncccc2C(F)(F)F)cc1 [Compound 58]
- EC50: > 32 µM

Compound: CCCNC(=O)c1cc(-c2ccc(OC)cc2)nn1-c1ncccc1C(F)(F)F [Compound 59, 5-(4-Methoxy-phenyl)-2-(3-trifluoromethyl-pyridin-2-yl)-2H-pyrazole-3-carboxylic acid propylamide]
- EC50: > 32 µM

Compound: CCOC(=O)c1cc(-c2ccc(OC)cc2)nn1-c1ncccc1[N+](=O)[O-] [Compound 60, 5-(4-Methoxy-phenyl)-2-(3-nitro-pyridin-2-yl)-2H-pyrazole-3-carboxylic acid ethyl ester]
- EC50: > 32 µM

Compound: CCOC(=O)c1cc(-c2ccc(OC)cc2)n(-c2ncccc2[N+](=O)[O-])n1 [Compound 61, 5-(4-Methoxy-phenyl)-1-(3-nitro-pyridin-2-yl)-1H-pyrazole-3-carboxylic acid ethyl ester]
- EC50: 19 µM

Compound: CCCNC(=O)c1cc(-c2ccc(OC)cc2)nn1-c1ccccn1 [Compound 62]
- EC50: > 32 µM

Compound: COc1ccc(-c2cc(C(=O)O)n(-c3ccccn3)n2)cc1 [Compound 63]
- EC50: > 32 µM

Compound: CCOC(=O)c1cc(-c2ccc3ccccc3c2)nn1-c1ccccn1 [Compound 65, 5-Naphthalen-2-yl-2-pyridin-2-yl-2H-pyrazole-3-carboxylic acid ethyl ester]
- EC50: > 32 µM

Compound: CCOC(=O)c1cc(-c2ccc3ccccc3c2)n(-c2ccccn2)n1 [Compound 66, 5-Naphthalen-2-yl-1-pyridin-2-yl-1H-pyrazole-3-carboxylic acid ethyl ester]
- EC50: 30 µM

Compound: CCOC(=O)c1cc(-c2ccc3ccccc3c2)n(-c2ncccc2C(F)(F)F)n1 [Compound 67, 5-Naphthalen-2-yl-1-(3-trifluoromethyl-pyridin-2-yl)-1H-pyrazole-3-carboxylic acid ethyl ester]
- EC50: 22 µM

Compound: CCOC(=O)c1cc(-c2ccc3ccccc3c2)nn1-c1ncccc1C(F)(F)F [Compound 68]
- EC50: 12 µM

Compound: CCOC(=O)c1cc(-c2ccc3ccccc3c2)n(-c2ncccc2[N+](=O)[O-])n1 [Compound 69]
- EC50: 24 µM

Compound: CCCNC(=O)c1cc(-c2ccc(OC)cc2)nn1-c1ncccc1[N+](=O)[O-] [Compound 70, 5-(4-Methoxy-phenyl)-2-(3-nitro-pyridin-2-yl)-2H-pyrazole-3-carboxylic acid propylamide]
- EC50: > 32 µM

Compound: CCCNC(=O)c1cc(-c2ccc3ccccc3c2)nn1-c1ccccn1 [Compound 71, 5-Naphthalen-2-yl-2-pyridin-2-yl-2H-pyrazole-3-carboxylic acid propylamide]
- EC50: 21 µM

Compound: CCCNC(=O)c1cc(-c2ccc3ccccc3c2)n(-c2ccccn2)n1 [Compound 72, 5-Naphthalen-2-yl-1-pyridin-2-yl-1H-pyrazole-3-carboxylic acid propylamide]
- EC50: > 32 µM

Compound: O=C(O)c1cc(-c2ccc3ccccc3c2)nn1-c1ccccn1 [Compound 73, 5-Naphthalen-2-yl-2-pyridin-2-yl-2H-pyrazole-3-carboxylic acid]
- EC50: > 32 µM

Compound: O=C(O)c1cc(-c2ccc3ccccc3c2)n(-c2ccccn2)n1 [Compound 74, 5-Naphthalen-2-yl-1-pyridin-2-yl-1H-pyrazole-3-carboxylic acid]
- EC50: > 32 µM

Compound: O=C(O)c1cc(-c2ccc3ccccc3c2)n(-c2ncccc2[N+](=O)[O-])n1 [Compound 75]
- EC50: > 32 µM

Compound: CCCNC(=O)c1cc(-c2ccc3ccccc3c2)nn1-c1ncccc1C(F)(F)F [Compound 76, 5-Naphthalen-2-yl-2-(3-trifluoromethyl-pyridin-2-yl)-2H-pyrazole-3-carboxylic acid propylamide]
- EC50: 9.4 µM

Compound: CCCNC(=O)c1cc(-c2ccc3ccccc3c2)n(-c2ncccc2C(F)(F)F)n1 [Compound 77, 5-Naphthalen-2-yl-1-(3-trifluoromethyl-pyridin-2-yl)-1H-pyrazole-3-carboxylic acid propylamide]
- EC50: > 32 µM

Compound: O=C(O)c1cc(-c2ccc3ccccc3c2)nn1-c1ncccc1C(F)(F)F [Compound 78, 5-Naphthalen-2-yl-2-(3-trifluoromethyl-pyridin-2-yl)-2H-pyrazole-3-carboxylic acid]
- EC50: > 32 µM

Compound: O=C(O)c1cc(-c2ccc3ccccc3c2)n(-c2ncccc2C(F)(F)F)n1 [Compound 79, 5-Naphthalen-2-yl-1-(3-trifluoromethyl-pyridin-2-yl)-1H-pyrazole-3-carboxylic acid]
- EC50: > 32 µM

Compound: COc1ccc(OCc2ccccc2)c(-c2ccn(-c3ncccc3C(F)(F)F)n2)c1 [Compound 80, 2-[3-(2-Benzyloxy-5-methoxy-phenyl)-pyrazol-1-yl]-3-trifluoromethyl-pyridine]
- EC50: 1.8 µM

Compound: COc1ccc(OCc2ccccc2)c(-c2ccnn2-c2ncccc2C(F)(F)F)c1 [Compound 81, 2-[5-(2-Benzyloxy-5-methoxy-phenyl)-pyrazol-1-yl]-3-trifluoromethyl-pyridine]
- EC50: 6.2 µM

Compound: COc1ccc(OCc2ccccc2)c(-c2ccn(-c3ccccn3)n2)c1 [Compound 82, 2-[3-(2-Benzvloxy-5-methoxy-phenvl)-pvrazol-1-yl]-pyridine]
- EC50: 4.3 µM

Compound: COc1ccc(OCc2ccccc2)c(-c2ccnn2-c2ccccn2)c1 [Compound 83, 2-[5-(2-Benzvloxy-5-methoxy-phenyl)-pvrazol-1-yl]-pyridine]
- EC50: 31 µM

Compound: COc1ccc(O)c(-c2ccn(-c3ccccn3)n2)c1 [Compound 84, 4-Methoxy-2-(1-pyridin-2-yl-1H-pyrazol-3-yl)-phenol]
- EC50: 3.3 µM

Compound: COc1ccc(O)c(-c2ccnn2-c2ccccn2)c1 [Compound 85, 4-Methoxy-2-(2-pyridin-2-yl-2H-pyrazol-3-yl)-phenol]
- EC50: > 32 µM

Compound: COc1ccc(O)c(-c2ccn(-c3ncccc3C(F)(F)F)n2)c1 [Compound 86, 4-Methoxy-2-[1-(3-trifluoromethyl-pyridin-2-yl)-1H-pyrazol-3-yl]-phenol]
- EC50: 7.8 µM

Compound: c1ccc(COc2ccc3ccccc3c2-c2ccn(-c3ccccn3)n2)cc1 [Compound 87, 2-[3-(2-Benzyloxy-naphthalen-1-yl)-pyrazol-1-yl]-pyridine]
- EC50: > 32 µM
